Key:
[1] = target: Substance-P receptor (Homo sapiens, UniProt P25103); assay: Binding affinity to human Tachykinin receptor 1
[2] = pKa value was determined; assay type: physicochemical
[3] = target: Voltage-gated L-type calcium channel (Homo sapiens, UniProt Q13936+Q13698+Q01668+O60840); assay: Inhibition of binding to L-type [Ca2+] channel; assay type: protein assay

Substance-P receptor, sequence (P25103 whole entry): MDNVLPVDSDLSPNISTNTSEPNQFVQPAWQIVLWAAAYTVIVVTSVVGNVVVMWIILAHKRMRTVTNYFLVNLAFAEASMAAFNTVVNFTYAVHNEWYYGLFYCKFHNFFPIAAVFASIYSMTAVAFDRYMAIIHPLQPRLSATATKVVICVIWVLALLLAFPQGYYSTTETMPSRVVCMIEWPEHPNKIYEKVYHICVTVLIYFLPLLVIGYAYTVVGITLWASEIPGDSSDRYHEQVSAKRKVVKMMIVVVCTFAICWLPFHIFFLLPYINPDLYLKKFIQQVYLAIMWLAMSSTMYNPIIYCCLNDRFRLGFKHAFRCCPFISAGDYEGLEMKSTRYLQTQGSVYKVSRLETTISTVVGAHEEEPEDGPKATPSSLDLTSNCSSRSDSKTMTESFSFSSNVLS

Structure (SMILES) | IC50 [1] [nM] | pKa [2] | IC50 [3] [nM]
N[C@H](COCc1cc(Cl)cc(Cl)c1)c1ccccc1 | 49 | – | –
Cc1cc(COC[C@@H](N)c2ccccc2)cc(C(C)(C)C)c1 | 13.7 | – | –
COc1cc(C)cc(COC[C@@H](N)c2ccccc2)c1 | 135 | – | –
CC(OCC(N)c1ccccc1)c1cc(C(F)(F)F)cc(C(F)(F)F)c1 (stereo not given) | 4.3 | – | –
Cc1cc(Br)cc(COC[C@@H](N)c2ccccc2)c1 | 20 | – | –

The next lines start with the values.

IC50 [1] [nM] | pKa [2] | IC50 [3] [nM] | Structure (SMILES)
7 | – | – | CC(OCc1cc(C(F)(F)F)cc(C(F)(F)F)c1)C(N)c1ccccc1 (single isomer, unassigned; diastereomer B)
13 | 7.93 | 580 | N[C@H](COCc1cc(C(F)(F)F)cc(C(F)(F)F)c1)c1ccccc1
5.8 | – | > 10000 | CN(CC(N)=O)[C@H](COCc1cc(C(F)(F)F)cc(C(F)(F)F)c1)c1ccccc1
95 | – | – | CC(OCc1cc(C(F)(F)F)cc(C(F)(F)F)c1)C(N)c1ccccc1 (single isomer, unassigned; diastereomer A)
30 | – | – | CC(N)(COCc1cc(C(F)(F)F)cc(C(F)(F)F)c1)c1ccccc1 (stereo not given)
8 | – | 2300 | NC(=O)CN[C@H](COCc1cc(C(F)(F)F)cc(C(F)(F)F)c1)c1ccccc1
